One assay concerns the target T1, JAK3 (Homo sapiens, UniProt P52333).
T1 construct: recombinant purified GST-tagged catalytic domain for each enzyme; purchased Invitrogen M4290
The assay is described as follows: Jak Biochemical HTRF Assay (JAK3). The note with it: recombinant purified GST-tagged catalytic domain, [ATP] 2.9 μM, values given as range classes. The method, then: (§1) Jak Biochemical HTRF Assay Protocol
(§2) The ability of compounds to inhibit the activity of JAK1, JAK2, JAK3, and Tyk2 was measured using a recombinant purified GST-tagged catalytic domain for each enzyme (Invitrogen JAK1 #M4290, JAK2 #M4290, JAK3 #M4290, Tyk2 #M4290) in an HTRF format biochemical assay. The reactions employed a common peptide substrate, LCB-EQEDEPEGDYFEWLW-NH2 (in-house). The basic assay protocol is as follows: First, 250 nL of diluted compounds in DMSO were dispensed into the wells of a dry 384-well Black plate (Greiner #781076) using a Labcyte Echo 555 acoustic dispenser. Subsequent reagent additions employed an Agilent Bravo. Next, 18 μL of 1.11× enzyme and 1.11× substrate in 1× assay buffer (Invitrogen kinase buffer #PV3189, 2 mM DTT, 0.05% BSA) were added to the wells and shaken and then preincubated for 30 minutes at room temperature to allow compound binding to equilibrate. After equilibration, 2 μL of 10×ATP in 1× assay buffer was added to initiate the kinase reaction and the plates were shaken and then incubated at room temperature for 120 minutes. At the end of the incubation, 20 μL of 2× stop buffer (streptavidin-Dylight 650 (Thermo #84547B/100 mL), Eu-tagged pY20 antibody (Perkin Elmer #AD0067), EDTA, HEPES, and Triton) was added to quench the reaction. Plates were shaken and centrifuged and then incubated 60 minutes at room temperature and then read on a Perkin Elmer Envision (λex=337 nm, λem=665 and 615 nm, TRF delay time=20 μs). HTRF signal=10,000*665 nm reading/615 nm reading. After normalization to untreated controls, the percent inhibition of the HTRF signal at each compound concentration was calculated. The plot of percent inhibition versus the log of compound concentration was fit with a 4-parameter dose response equation to calculate IC50 values.
(§3) Final reaction conditions were:
(§4) Examples of the instant invention were evaluated in JAK2 and JAK3 in vitro binding assays. Table 13 tabulates the biological data disclosed for the instant invention as a range of JAK2 and JAK3 IC50 values (A: IC50≦10 nM; B: 10 nM>IC50≦500 nM C: IC50>500 nM).
(TR-FRET usually uses a lanthanide donor and a delayed reading to cut background.)

For a further assay, the target named is T2, JAK2 (Homo sapiens, UniProt O60674).
T2 construct: recombinant purified GST-tagged catalytic domain for each enzyme; purchased Invitrogen M4290
In words: Jak Biochemical HTRF Assay (JAK2). The following applies: recombinant purified GST-tagged catalytic domain, [ATP] 8.5 μM, values given as range classes. As to the method: as §1, §2, §3, §4

T2 sequence (O60674 849-1124 limits assumed): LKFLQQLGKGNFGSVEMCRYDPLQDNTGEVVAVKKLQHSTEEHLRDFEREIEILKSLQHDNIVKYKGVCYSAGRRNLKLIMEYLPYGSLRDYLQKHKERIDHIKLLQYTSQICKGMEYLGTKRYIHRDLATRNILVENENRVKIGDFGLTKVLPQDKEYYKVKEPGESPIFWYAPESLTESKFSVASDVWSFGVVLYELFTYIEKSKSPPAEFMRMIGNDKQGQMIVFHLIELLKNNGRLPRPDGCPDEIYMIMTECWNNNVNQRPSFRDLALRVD
T1 sequence (P52333 822-1111 limits assumed): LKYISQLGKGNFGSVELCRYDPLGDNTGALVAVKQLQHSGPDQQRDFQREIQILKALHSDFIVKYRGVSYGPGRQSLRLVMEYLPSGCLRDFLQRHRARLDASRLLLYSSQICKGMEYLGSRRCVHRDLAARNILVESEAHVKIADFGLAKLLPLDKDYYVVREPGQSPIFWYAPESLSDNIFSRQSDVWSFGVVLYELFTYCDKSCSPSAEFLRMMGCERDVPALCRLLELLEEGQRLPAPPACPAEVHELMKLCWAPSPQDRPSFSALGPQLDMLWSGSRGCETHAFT

Take `C[C@@H](Nc1cncc(-c2c[nH]c3ncc(F)cc23)c1)C(=O)NCC(F)(F)F` [Example 1-30, N~2~-[5-(5-fluoro-1H-pyrrolo[2,3-b]pyridin-3-yl)pyridin-3-yl]-N-(2,2,2-trifluoroethyl)-D-alaninamide]: the IC50 at JAK3 and on JAK2 was 10 to 500 nM throughout.

For `COc1cnc2[nH]cc(-c3cncc(N[C@H](C)C(=O)NCC(F)(F)F)c3)c2c1` [Example 1-31, N~2~-[5-(5-methoxy-1H-pyrrolo[2,3-b]pyridin-3-yl)pyridin-3-yl]-N-(2,2,2-trifluoroethyl)-D-alaninamide], the results for the IC50 on JAK3 and at JAK2 were no more than 10 nM and 10 to 500 nM, respectively.

Take `C[C@@H](Nc1cncc(-c2c[nH]c3ncc(C#N)cc23)c1)C(=O)NCC(F)(F)F` [Example 1-32, N~2~-[5-(5-cyano-1H-pyrrolo[2,3-b]pyridin-3-yl)pyridin-3-yl]-N-(2,2,2-trifluoroethyl)-D-alaninamide]: the IC50 at JAK3 is no more than 10 nM; at JAK2, 10 to 500 nM.

Take `O=C(NCC(F)(F)F)[C@H]1CCCC[C@H]1Nc1cncc(-c2c[nH]c3ncc(Cl)cc23)c1` [Example 1-33, (1S,2R)-2-{[5-(5-chloro-1H-pyrrolo[2,3-b]pyridin-3-yl)pyridin-3-yl]amino}-N-(2,2,2-trifluoroethyl)cyclohexane-carboxamide]: the IC50 at JAK3 is no more than 10 nM; on JAK2, 10 to 500 nM.

For the molecule `C[C@@H](Nc1cncc(-c2c[nH]c3ncc(S(C)(=O)=O)cc23)c1)C(=O)NCC(F)(F)F` [Example 1-34, N~2~-{5-[5-(methylsulfonyl)-1H-pyrrolo[2,3-b]pyridin-3-yl]pyridin-3-yl}-N-(2,2,2-trifluoroethyl)-D-alaninamide], the IC50 at JAK3 is no more than 10 nM; on JAK2, greater than 500 nM.

Turning to `CC(C(=O)NCC(F)(F)F)n1ccc2ncc(-c3c[nH]c4ncc(Cl)cc34)cc21` (stereo not drawn) [Example 1-35, 2-[6-(5-chloro-1H-pyrrolo[2,3-b]pyridin-3-yl)-1H-pyrrolo[3,2-b]pyridin-1-yl]-N-(2,2,2-trifluoroethyl)propanamide], the IC50 is no more than 10 nM on JAK3 and 10 to 500 nM on JAK2.

As to `C[C@@H](Nc1cncc(-c2c[nH]c3ncc(Cl)c(F)c23)c1)C(=O)NCC(F)(F)F` [Example 1-36, N~2~-[5-(5-chloro-4-fluoro-1H-pyrrolo[2,3-b]pyridin-3-yl)pyridin-3-yl]-N-(2,2,2-trifluoroethyl)-D-alaninamide], the half-inhibitory concentration (IC50) on JAK3 was 10 to 500 nM; on JAK2, greater than 500 nM.

On to `O=C(NCC(F)(F)F)[C@H]1CCCC[C@H]1Nc1cncc(-c2c[nH]c3ncc(F)cc23)c1` [Example 1-37, (1S,2R)-2-{[5-(5-fluoro-1H-pyrrolo[2,3-b]pyridin-3-yl)pyridin-3-yl]amino}-N-(2,2,2-trifluoroethyl)cyclohexane-carboxamide], for which the IC50 on JAK3 is no more than 10 nM; at JAK2, 10 to 500 nM.

As to `N#Cc1cnc2[nH]cc(-c3cncc(N[C@@H]4CCCC[C@@H]4C(=O)NCC(F)(F)F)c3)c2c1` [Example 1-38, (1S,2R)-2-{[5-(5-cyano-1H-pyrrolo[2,3-b]pyridin-3-yl)pyridin-3-yl]amino}-N-(2,2,2-trifluoroethyl)cyclohexane-carboxamide], the IC50 was no more than 10 nM on JAK3 and 10 to 500 nM on JAK2.

As to `C[C@H](Nc1cc(-c2c[nH]c3ncc(Cl)cc23)cnc1F)C(=O)NCC(F)(F)F` [Example 1-39, N~2~-[5-(5-chloro-1H-pyrrolo[2,3-b]pyridin-3-yl)-2-fluoropyridin-3-yl]-N-(2,2,2-trifluoroethyl)alaninamide], the values for the IC50 at JAK3 and at JAK2 were no more than 10 nM and 10 to 500 nM, respectively.

Turning to `NC(=O)c1cnc2[nH]cc(-c3cncc(N[C@@H]4CCCC[C@@H]4C(=O)NCC(F)(F)F)c3)c2c1` [Example 1-40, 3-[5-({(1R,2S)-2-[(2,2,2-trifluoroethyl)carbamoyl]cyclo-hexyl}amino)pyridin-3-yl]-1H-pyrrolo[2,3-b]pyridine-5-carboxamide], the IC50 on JAK3 and on JAK2 was no more than 10 nM each time.

Take `CC(C)[C@H](Nc1cncc(-c2c[nH]c3ncc(C#N)cc23)c1)C(=O)NCC(F)(F)F` [Example 1-41, N~2~-[5-(5-cyano-1H-pyrrolo[2,3-b]pyridin-3-yl)pyridin-3-yl]-N-(2,2,2-trifluoroethyl)valinamide]: the IC50 at JAK3 was no more than 10 nM; at JAK2, 10 to 500 nM.

`CC(C)C(Nc1cncc(-c2c[nH]c3ncc(C(N)=O)cc23)c1)C(=O)NCC(F)(F)F` (stereo not drawn) [Example 1-42, 3-[5-({2-methyl-1-[(2,2,2-trifluoroethyl)carbamoyl]propyl}amino)pridin-3-yl]-1H-pyrrolo[2,3-b]pyridine-5-carboxamide]: the results for the IC50 on JAK3 and on JAK2 were no more than 10 nM and 10 to 500 nM, respectively.

As for `CC(C)(Nc1cncc(-c2c[nH]c3ncc(F)cc23)c1)C(=O)NCC(F)(F)F` [Example 1-43, N~2~-[5-(5-fluoro-1H-pyrrolo[2,3-b]pyridin-3-yl)pyridin-3-yl]-2-methyl-N-(2,2,2-trifluoroethyl)alaninamide], the values for the IC50 on JAK3 and at JAK2 were no more than 10 nM and 10 to 500 nM, respectively.

Take `CC(C)(Nc1cncc(-c2c[nH]c3ncc(C#N)cc23)c1)C(=O)NCC(F)(F)F` [Example 1-44, N~2~-[5-(5-cyano-1H-pyrrolo[2,3-b]pyridin-3-yl)pyridin-3-yl]-2-methyl-N-(2,2,2-trifluoroethyl)alaninamide]: the half-maximal inhibitory concentration (IC50) at JAK3 is no more than 10 nM; on JAK2, 10 to 500 nM.

As to `COc1cnc2[nH]cc(-c3cncc(N[C@H](C(=O)NCC(F)(F)F)C(C)C)c3)c2c1` [Example 1-45, N~2~-[5-(5-methoxy-1H-pyrrolo[2,3-b]pyridin-3-yl)pyridin-3-yl]-N-(2,2,2-trifluoroethyl)valinamide], the IC50 was no more than 10 nM on JAK3 and 10 to 500 nM on JAK2.

Regarding `C[C@@H](Nc1cncc(-c2c[nH]c3ncc(C(N)=O)cc23)c1)C(=O)NCC(F)(F)F` [Example 1-46, 3-[5-({(1R)-1-methyl-2-oxo-2-[(2,2,2-trifluoroethyl)amino]ethyl}amino)pyridin-3-yl]-1H-pyrrolo[2,3-b]pyridine-5-carboxamide], the IC50 is no more than 10 nM on JAK3 and 10 to 500 nM at JAK2.

As to `CC(C)(Nc1cncc(-c2c[nH]c3ncc(C(N)=O)cc23)c1)C(=O)NCC(F)(F)F` [Example 1-47, 3-[5-({1,1-dimethyl-2-oxo-2-[(2,2,2-trifluoroethyl)amino]ethyl}amino)pyridin-3-yl]-1H-pyrrolo[2,3-b]pyridine-5-carboxamide], the results for the IC50 on JAK3 and on JAK2 were no more than 10 nM and 10 to 500 nM, respectively.

In the case of `O=C(NCC(F)(F)F)C(Nc1cncc(-c2c[nH]c3ncc(Cl)cc23)c1)C1CC1` (stereo not drawn) [Example 1-48, 2-{[5-(5-chloro-1H-pyrrolo[2,3-b]pyridin-3-yl)pyridin-3-yl]amino}-2-cyclopropyl-N-(2,2,2-trifluoroethyl)acetamide], the IC50 is no more than 10 nM on JAK3 and 10 to 500 nM on JAK2.

With `CC(C)(O)[C@@H](Nc1cncc(-c2c[nH]c3ncc(Cl)cc23)c1)C(=O)NCC(F)(F)F` [Example 1-49, N~2~-[5-(5-chloro-1H-pyrrolo[2,3-b]pyridin-3-yl)pyridin-3-yl]-3-hydroxy-N-(2,2,2-trifluoroethyl)-D-valinamide], the figures for the IC50 on JAK3 and at JAK2 were no more than 10 nM and 10 to 500 nM, respectively.

For `COc1cnc2[nH]cc(-c3cncc(N[C@@H](C(=O)NCC(F)(F)F)C(C)(C)O)c3)c2c1` [Example 1-50, 3-hydroxy-N~2~-[5-(5-methoxy-1H-pyrrolo[2,3-b]pyridin-3-yl)pyridin-3-yl]-N-(2,2,2-trifluoroethyl)-D-valinamide], the half-inhibitory concentration (IC50) at JAK3 is no more than 10 nM; at JAK2, 10 to 500 nM.

As to `CC(C)[C@@H](Nc1cncc(-c2c[nH]c3ncc(Cl)cc23)c1)C(=O)NCC(F)(F)F` [Example 1-51, N~2~-[5-(5-chloro-1H-pyrrolo[2,3-b]pyridin-3-yl)pyridin-3-yl]-N-(2,2,2-trifluoroethyl)-D-valinamide], the IC50 on JAK3 and on JAK2 was no more than 10 nM in each case.

`CC(C)[C@H](Nc1cncc(-c2c[nH]c3ncc(Cl)cc23)c1)C(=O)NCC(F)(F)F` [Example 1-52, N-18 2~-[5-(5-chloro-1H-pyrrolo[2,3-b]pyridin-3-yl)pyridin-3-yl]-N-(2,2,2-trifluoroethyl)-L-valinamide]: the IC50 on JAK3 is no more than 10 nM; on JAK2 it was 10 to 500 nM.

Take `CC(C)C(Nc1cncc(-c2c[nH]c3ncc(O)cc23)c1)C(=O)NCC(F)(F)F` (stereo not drawn) [Example 2-1, 2-{[5-(5-hydroxy-1H-pyrrolo[2,3-b]pyridin-3-yl)pyridin-3-yl]amino}-3-methyl-N-(2,2,2-trifluoroethyl)butanamide]: the IC50 on JAK3 was no more than 10 nM; at JAK2, 10 to 500 nM.

As usually defined, the IC50 is the concentration at which inhibition is half-maximal.

The values above are taken from patent US9096598B2 (Merck Sharp & Dohme Corp., priority 2011, dated 2015).
